According to patent US20060106042A1, “Substituted heterocyclpyrmidines” (priority 2002, published 2006):
Like-named read-outs stand apart in the source and are kept apart here.

Experiments:
[1] = logP determination by reversed-phase HPLC (EEC Directive 79/831 Annex V.A8); type: physicochemical; details: for logP a): acidic range: 0.1% aqueous phosphoric acid/acetonitrile gradient, C18, 43° C.
Source text: (a) Mobile phases for the determination of the acidic range: 0.1% aqueous phosphoric acid, acetonitrile; linear gradient from 10% acetonitrile to 90% acteonitrile—the corresponding measurement results in Table 1 are marked^a). […]

Meloidogyne incognita = assay: Meloidogyne test (gall formation on lettuce roots); type: in vivo; details: for pest or weed control at 20 ppm: Meloidogyne incognita, 336 h, after 14 d, nematicidal action by gall formation on lettuce, read-out: Kill rate in % after 14 d; for kill rate: 20 ppm, Meloidogyne test as described
Method: (§1) • Solvent: 7 parts by weight of dimethylformamide • Emulsifier: 2 parts by weight of alkylaryl polyglycol ether
To produce a suitable preparation of active compound, 1 part by weight of active compound is mixed with the stated amounts of solvent and emulsifier, and the concentrate is diluted with water to the desired concentration.
Vessels are filled with sand, solution of active compound, Meloidogyne incognita egg/larvae suspension and lettuce seeds. The lettuce seeds germinate and the plants develop. On the roots, galls are formed.
After the desired period of time, the nematicidal action is determined in % using the formation of galls. 100% means that no galls were found; 0% means that the number of galls on the treated plants corresponds to that of the untreated control.

[2] = tested on: larvae of the mustard beetle (Phaedon cochleariae); assay: Phaedon larvae test (cabbage leaves, dip); type: in vivo; details: 168 h, after 7 d, cabbage leaves dipped, read-out: Kill rate in % after 7 d
Method: as §1
After the desired period of time, the kill in % is determined. 100% means that all beetle larvae have been killed; 0% means that none of the beetle larvae have been killed.

[3] = tested on: greenhouse red spider mite (Tetranychus urticae); assay: Tetranychus test (OP-resistant/dip treatment); type: in vivo; details: 168 h, read-out: Kill rate in % after 7 d
Method: Tetranychus Test (OP-Resistant/Dip Treatment)
as §1
After the desired period of time, the effect in % is determined. 100% means that all spider mites have been killed; 0% means that none of the spider mites have been killed.

[4] = tested on: caterpillars of the armyworm (Spodoptera frugiperda); assay: Spodoptera frugiperda test (cabbage leaves, dip); type: in vivo; details: 168 h, after 7 d, cabbage leaves dipped, read-out: Kill rate in % after 7 d
Method: Spodoptera frugiperda Test
as §1
After the desired period of time, the kill in % is determined. 100% means that all caterpillars have been killed; 0% means that none of the caterpillars have been killed.

[5] = reversed-phase HPLC column (C18); acidic range: 0.1% aqueous phosphoric acid/acetonitrile gradient, C18, 43° C.; read-out: logP a)
[6] = 100 ppm, after 7 d, OP-resistant, bean plants dipped

Row | Compound | chromatographic logP [1, 5] | pest or weed control at 20 ppm (Meloidogyne incognita) [%] | kill rate (Meloidogyne incognita) [%] | other results
1 | FC(F)=CCCSc1nccc(-c2ccc(Cl)s2)n1 [Example 3] | 4.73 | 100 | – | pest or weed control at 500 ppm [2]: 100%
2 | [O-][S+](CCC=C(F)F)c1nccc(-c2ccccn2)n1 (centres unmarked) [Example 5] | 1.47 | – | – | pest or weed control at 100 ppm [3]: 100%
3 | FC(F)=CCCSc1nccc(-c2cccnc2)n1 [Example 9] | 1.96 | 100 | – | pest or weed control at 100 ppm [3, 6]: 100%
4 | FC(F)=CCCSc1nccc(-c2ccncc2)n1 [Example 10] | 1.72 | – | – | pest or weed control at 500 ppm [2]: 100%
5 | FC(F)=C(F)CCSc1nccc(-c2nccs2)n1 [Example 12] | 1.56 | 100 | – | –
6 | FC(F)=C(F)CCSc1nccc(-c2cnccn2)n1 [Example 16] | 2.92 | 100 | – | –
7 | FC(F)=CCCSc1nccc(-c2cccc(Br)n2)n1 [Example 17] | 4.51 | – | – | pest or weed control at 100 ppm [3, 6]: 100%
8 | CCOc1cccc(-c2ccnc(SCCC=C(F)F)n2)n1 [Example 20] | 4.91 | – | – | pest or weed control at 500 ppm [4]: 100%
9 | FC(F)=C(F)CCSc1nccc(-c2ccc[nH]2)n1 [Example 21] | – | 100 | – | –
10 | FC(F)=C(F)CCSc1nccc(-n2cccn2)n1 [Example 22] | 3.27 | 100 | – | –
11 | FC(F)=CCCSc1nccc(-n2cc(Cl)cn2)n1 [Example 24] | 4.13 | – | – | pest or weed control at 500 ppm [2]: 100%
12 | FC(F)=CCCSc1nccc(-c2cccs2)n1 [Example 27] | 3.83 | – | – | pest or weed control at 100 ppm [3, 6]: 100%
13 | FC(F)=C(F)CCSc1nccc(-c2cccs2)n1 [Example 28] | 3.84 | 100 | – | –
14 | FC(F)=CCCSc1nccc(-c2ccc3ccccc3n2)n1 [Example 31] | 4.81 | – | – | pest or weed control at 500 ppm [4]: 100%
15 | FC(F)=CCCSc1nccc(-c2cc(-c3ccccc3)ccn2)n1 [Example 32] | 4.77 | – | – | pest or weed control at 100 ppm [3, 6]: 100%
16 | CC(C)(C)c1ccnc(-c2ccnc(SCCC=C(F)F)n2)c1 [Example 33] | 4.8 | – | – | pest or weed control at 100 ppm [3, 6]: 100%
17 | FC(F)=C(F)CCSc1nccc(-c2ccc3ccccc3n2)n1 [Example 34] | 4.81 | 100 | – | –
18 | Cc1cc(=O)[nH]n1-c1ccnc(SCCC=C(F)F)n1 [Example 39] | 2.55 | 100 | – | –
19 | FC(F)=CCCSc1nccc(-n2nnc3ccccc32)n1 [Example 40] | 3.97 | – | – | pest or weed control at 500 ppm [4]: 100%
20 | FC(F)=C(F)CCSc1nccc(-n2cccc2)n1 [Example 41] | – | 100 | – | –
21 | FC(F)=CCCSc1nccc(-n2nc3ccccc3n2)n1 [Example 42] | 3.98 | – | – | pest or weed control at 100 ppm [3, 6]: 99%
22 | FC(F)=CCCSc1nccc(-c2ncccc2Cl)n1 [Example 43] | 3.32 | – | – | pest or weed control at 100 ppm [3, 6]: 99%
23 | FC(F)=CCCSc1nccc(-c2nc3ccc(Cl)cc3s2)n1 [Example 45] | 5.57 | 100 | – | –
24 | FC(F)=CCCSc1nccc(-c2cscn2)n1 [Example 48] | 3.14 | – | – | pest or weed control at 500 ppm [4]: 100%
25 | COc1ccc(-c2ccnc(SCCC(F)=C(F)F)n2)nc1 [Example 49] | 2.17 | 100 | – | –
26 | COc1ccc(-c2ccnc(SCCC=C(F)F)n2)nc1 [Example 50] | 2.12 | – | – | pest or weed control at 500 ppm [4]: 100%
27 | FC(F)=CCCSc1nccc(-c2ccc(Br)s2)n1 [Example 51] | 4.77 | – | – | pest or weed control at 500 ppm [4]: 100%

Row | Compound | chromatographic logP [1, 5] | pest or weed control at 20 ppm (Meloidogyne incognita) [%] | kill rate (Meloidogyne incognita) [%] | other results
28 | Cc1ccc(-c2ccnc(SCCC=C(F)F)n2)s1 [Example 52] | 4.3 | – | – | pest or weed control at 500 ppm [4]: 100%
29 | FC(F)=CCCSc1nccc(-c2cc3ccccc3s2)n1 [Example 53] | 4.87 | – | – | pest or weed control at 500 ppm [4]: 100%
30 | FC(F)=C(F)CCSc1nccc(-c2cc3ccccc3s2)n1 [Example 57] | 4.85 | 100 | – | –
31 | FC(F)=CCCSc1nccc(-c2ccsc2)n1 [Example 59] | 3.8 | – | – | pest or weed control at 500 ppm [2]: 100%
32 | FC(F)=C(F)CCSc1nccc(-c2ccsc2)n1 [Example 60] | 3.82 | 100 | – | –
33 | Cc1cc(-c2ccnc(SCCC(F)=C(F)F)n2)c(C)s1 [Example 62] | 4.79 | 100 | – | –
34 | FC(F)=CCCSc1nccc(-c2cc(Cl)sc2Cl)n1 [Example 63] | 5.65 | – | – | pest or weed control at 500 ppm [4]: 100%; pest or weed control at 100 ppm [3]: 100%
35 | FC(F)=C(F)CCSc1nccc(-c2cc(Cl)sc2Cl)n1 [Example 64] | 5.55 | 100 | – | –
36 | CC(C)(C)n1nnc(-c2cnc(SCCC(F)=C(F)F)nc2)n1 [Example 67] | 4.22 | 100 | – | pest or weed control at 500 ppm [2]: 100%
37 | Cc1nn(-c2ccnc(SCCC=C(F)F)n2)cc1Br [Example 82] | – | – | 100 | logP a) [1]: logP '2 4.76^a)
38 | CC(C)Oc1cnn(-c2ccnc(SCCC=C(F)F)n2)c1 [Example 85] | – | – | 100 | logP a) [1]: logP = 4.26^a)
39 | Cc1cc(C)n(-c2ccnc(SCCC=C(F)F)n2)n1 [Example 86] | – | – | 100 | logP a) [1]: logP = 3.95^a)
40 | FC(F)=CCCSc1nccc(-n2ncc3ccccc32)n1 [Example 87] | – | – | 100 | logP a) [1]: logP = 4.26^a)
41 | FC(F)=CCCSc1nccc(-n2cnc(Cl)c2Cl)n1 [Example 88] | – | – | 100 | logP a) [1]: logP = 3.57^a)
42 | FC(F)=CCCSc1nccc(-n2cnc(-c3ccccc3)c2)n1 [Example 92] | – | – | 100 | logP a) [1]: logP = 3.45^a)
43 | Nc1nn(-c2ccnc(SCCC=C(F)F)n2)cc1Br [Example 93] | – | – | 100 | logP a) [1]: logP = 3.15^a)
44 | Nc1ccn(-c2ccnc(SCCC=C(F)F)n2)n1 [Example 97] | – | – | 100 | logP a) [1]: logP = 2.31^a)
45 | N#Cc1cccn1-c1ccnc(SCCC=C(F)F)n1 [Example 104] | – | – | 100 | logP a) [1]: logP = 3.23^a)
46 | Cc1nccn1-c1ccnc(SCCC=C(F)F)n1 [Example 107] | – | – | 100 | logP a) [1]: logP = 1.30^a)
47 | FC(F)=CCCSc1nccc(-n2cnc(Cl)n2)n1 [Example 109] | – | – | 100 | logP a) [1]: logP = 3.31^a)
48 | O=[N+]([O-])c1ncn(-c2ccnc(SCCC=C(F)F)n2)n1 [Example 110] | – | – | 100 | logP a) [1]: logP = 2.95^a)
49 | FC(F)=CCCSc1nccc(-n2cncn2)n1 [Example 112] | – | – | 100 | logP a) [1]: logP = 2.44^a)
50 | O=C1CCC(=O)N1c1ccnc(SCCC=C(F)F)n1 [Example 119] | – | – | 100 | –
51 | FC(F)=CCCSc1nccc(-n2cccc2)n1 [Example 120] | – | – | 100 | –
52 | FC(F)=CCCSc1nccc(-n2nccn2)n1 [Example 125] | – | – | 100 | –
53 | FC(F)=CCCSc1nccc(Cl)n1 [Example (II-1), 4-chloro-2-[(4,4-difluoro-3-butenyl)-sulfanyl]-pyrimidine] | – | – | – | chromatographic logP ([1]; reversed-phase HPLC column (C18), pH 2.3, read-out: logP (pH 2.3)): 3.3
